The source of these data is PubChem BioAssay AID2060494 (Molecular Pharmacology Branch, DTP, NCI, 2025).

SMILES strings stand for the structures.
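Note: spheroids exposed to the agents for seven days before readout; percent of vehicle control viability with DMSO wells as 100%.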

For one assay, the system named is 435261-313-R-J1-PDC complex spheroid viability. Briefly: Anticancer human tumor 435261-313-R-J1-PDC patient-derived colon adenocarcinoma cell line growth inhibition [GQUAD]. Conditions: second compound 3.16 µM; first compound 0.1 µM; active compounds read low. The essentials: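 Tumor cells were grown as complex spheroids with HUVEC endothelial cells and mesenchymal stem cells as stroma. G-quadruplex stabilizers were combined with targeted agents over half-log dilutions from near the clinical Cmax, or from 10 microM.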
`Nc1ccn(C2OC(CO)C(O)C2(F)F)c(=O)n1` (configuration not stated) + CN(C)c1ccc(Nc2c3ccc(NC(=O)CCN4CCCC4)cc3nc3cc(NC(=O)CCN4CCCC4)ccc23)cc1: the viability, T/C is 58%.

For the molecule `O=c1[nH]cc(F)c(=O)[nH]1` + CN(C)c1ccc(Nc2c3ccc(NC(=O)CCN4CCCC4)cc3nc3cc(NC(=O)CCN4CCCC4)ccc23)cc1, the viability, T/C is 78.1%.

The assay is the same for the next values; noted with them: second compound 3.16 µM; first compound 0.316 µM; active compounds read low.
Take `COc1cc(C2c3cc4c(cc3C(OC3OC5COC(C)OC5C(O)C3O)C3COC(=O)C23)OCO4)cc(OC)c1O` (configuration not stated) + CN(C)c1ccc(Nc2c3ccc(NC(=O)CCN4CCCC4)cc3nc3cc(NC(=O)CCN4CCCC4)ccc23)cc1: the viability, T/C is 65.5%.

As for `COc1cccc2c1C(=O)c1c(O)c3c(c(O)c1C2=O)CC(O)(C(=O)CO)CC3OC1CC(N)C(O)C(C)O1` (configuration not stated) + CN(C)c1ccc(Nc2c3ccc(NC(=O)CCN4CCCC4)cc3nc3cc(NC(=O)CCN4CCCC4)ccc23)cc1, the viability, T/C was 42%.

Take `Nc1ccn(C2OC(CO)C(O)C2(F)F)c(=O)n1` (configuration not stated) + CN(C)c1ccc(Nc2c3ccc(NC(=O)CCN4CCCC4)cc3nc3cc(NC(=O)CCN4CCCC4)ccc23)cc1: the viability, T/C was 53.2%.

`O=c1[nH]cc(F)c(=O)[nH]1` + CN(C)c1ccc(Nc2c3ccc(NC(=O)CCN4CCCC4)cc3nc3cc(NC(=O)CCN4CCCC4)ccc23)cc1: the viability, T/C was 73.4%.

The same assay, now with this note: second compound 3.16 µM; first compound 1 µM; active compounds read low.
With `COc1cc(C2c3cc4c(cc3C(OC3OC5COC(C)OC5C(O)C3O)C3COC(=O)C23)OCO4)cc(OC)c1O` (configuration not stated) + CN(C)c1ccc(Nc2c3ccc(NC(=O)CCN4CCCC4)cc3nc3cc(NC(=O)CCN4CCCC4)ccc23)cc1, the viability, T/C is 55.2%.

Turning to `COc1cccc2c1C(=O)c1c(O)c3c(c(O)c1C2=O)CC(O)(C(=O)CO)CC3OC1CC(N)C(O)C(C)O1` (configuration not stated) + CN(C)c1ccc(Nc2c3ccc(NC(=O)CCN4CCCC4)cc3nc3cc(NC(=O)CCN4CCCC4)ccc23)cc1, the viability, T/C is 16.4%.

With `Nc1ccn(C2OC(CO)C(O)C2(F)F)c(=O)n1` (configuration not stated) + CN(C)c1ccc(Nc2c3ccc(NC(=O)CCN4CCCC4)cc3nc3cc(NC(=O)CCN4CCCC4)ccc23)cc1, the viability, T/C is 57.5%.

For the molecule `O=c1[nH]cc(F)c(=O)[nH]1` + CN(C)c1ccc(Nc2c3ccc(NC(=O)CCN4CCCC4)cc3nc3cc(NC(=O)CCN4CCCC4)ccc23)cc1, the viability, T/C was 63.3%.

The same assay, now with this note: second compound 3.16 µM; first compound 3.16 µM; active compounds read low.
For `COc1cc(C2c3cc4c(cc3C(OC3OC5COC(C)OC5C(O)C3O)C3COC(=O)C23)OCO4)cc(OC)c1O` (configuration not stated) + CN(C)c1ccc(Nc2c3ccc(NC(=O)CCN4CCCC4)cc3nc3cc(NC(=O)CCN4CCCC4)ccc23)cc1, the viability, T/C was 62.4%.

Consider `COc1cccc2c1C(=O)c1c(O)c3c(c(O)c1C2=O)CC(O)(C(=O)CO)CC3OC1CC(N)C(O)C(C)O1` (configuration not stated) + CN(C)c1ccc(Nc2c3ccc(NC(=O)CCN4CCCC4)cc3nc3cc(NC(=O)CCN4CCCC4)ccc23)cc1, for which the viability, T/C is 1.33%.

Take `Nc1ccn(C2OC(CO)C(O)C2(F)F)c(=O)n1` (configuration not stated) + CN(C)c1ccc(Nc2c3ccc(NC(=O)CCN4CCCC4)cc3nc3cc(NC(=O)CCN4CCCC4)ccc23)cc1: the viability, T/C was 54%.

Turning to `O=c1[nH]cc(F)c(=O)[nH]1` + CN(C)c1ccc(Nc2c3ccc(NC(=O)CCN4CCCC4)cc3nc3cc(NC(=O)CCN4CCCC4)ccc23)cc1, the viability, T/C is 70.2%.

Staying with this assay, now noted: second compound 3.16 µM; first compound 10 µM; active compounds read low.
`COc1cc(C2c3cc4c(cc3C(OC3OC5COC(C)OC5C(O)C3O)C3COC(=O)C23)OCO4)cc(OC)c1O` (configuration not stated) + CN(C)c1ccc(Nc2c3ccc(NC(=O)CCN4CCCC4)cc3nc3cc(NC(=O)CCN4CCCC4)ccc23)cc1: the viability, T/C is 45.7%.

Turning to `COc1cccc2c1C(=O)c1c(O)c3c(c(O)c1C2=O)CC(O)(C(=O)CO)CC3OC1CC(N)C(O)C(C)O1` (configuration not stated) + CN(C)c1ccc(Nc2c3ccc(NC(=O)CCN4CCCC4)cc3nc3cc(NC(=O)CCN4CCCC4)ccc23)cc1, the viability, T/C was 3.49%.

In the case of `Nc1ccn(C2OC(CO)C(O)C2(F)F)c(=O)n1` (configuration not stated) + CN(C)c1ccc(Nc2c3ccc(NC(=O)CCN4CCCC4)cc3nc3cc(NC(=O)CCN4CCCC4)ccc23)cc1, the viability, T/C is 38.7%.

Consider `O=c1[nH]cc(F)c(=O)[nH]1` + CN(C)c1ccc(Nc2c3ccc(NC(=O)CCN4CCCC4)cc3nc3cc(NC(=O)CCN4CCCC4)ccc23)cc1, for which the viability, T/C was 60.4%.

Staying with this assay, now noted: second compound 10 µM; first compound 0.0316 µM; active compounds read low.
On to `COc1cc(C2c3cc4c(cc3C(OC3OC5COC(C)OC5C(O)C3O)C3COC(=O)C23)OCO4)cc(OC)c1O` (configuration not stated) + CN(C)c1ccc(Nc2c3ccc(NC(=O)CCN4CCCC4)cc3nc3cc(NC(=O)CCN4CCCC4)ccc23)cc1, for which the viability, T/C was 63%.

`COc1cccc2c1C(=O)c1c(O)c3c(c(O)c1C2=O)CC(O)(C(=O)CO)CC3OC1CC(N)C(O)C(C)O1` (configuration not stated) + CN(C)c1ccc(Nc2c3ccc(NC(=O)CCN4CCCC4)cc3nc3cc(NC(=O)CCN4CCCC4)ccc23)cc1: the viability, T/C was 37.7%.

Consider `Nc1ccn(C2OC(CO)C(O)C2(F)F)c(=O)n1` (configuration not stated) + CN(C)c1ccc(Nc2c3ccc(NC(=O)CCN4CCCC4)cc3nc3cc(NC(=O)CCN4CCCC4)ccc23)cc1, for which the viability, T/C is 30.9%.

For the molecule `O=c1[nH]cc(F)c(=O)[nH]1` + CN(C)c1ccc(Nc2c3ccc(NC(=O)CCN4CCCC4)cc3nc3cc(NC(=O)CCN4CCCC4)ccc23)cc1, the viability, T/C was 29.4%.

Staying with this assay, now noted: second compound 10 µM; first compound 0.1 µM; active compounds read low.
As for `COc1cc(C2c3cc4c(cc3C(OC3OC5COC(C)OC5C(O)C3O)C3COC(=O)C23)OCO4)cc(OC)c1O` (configuration not stated) + CN(C)c1ccc(Nc2c3ccc(NC(=O)CCN4CCCC4)cc3nc3cc(NC(=O)CCN4CCCC4)ccc23)cc1, the viability, T/C is 42.4%.

Regarding `COc1cccc2c1C(=O)c1c(O)c3c(c(O)c1C2=O)CC(O)(C(=O)CO)CC3OC1CC(N)C(O)C(C)O1` (configuration not stated) + CN(C)c1ccc(Nc2c3ccc(NC(=O)CCN4CCCC4)cc3nc3cc(NC(=O)CCN4CCCC4)ccc23)cc1, the viability, T/C was 28%.

For `Nc1ccn(C2OC(CO)C(O)C2(F)F)c(=O)n1` (configuration not stated) + CN(C)c1ccc(Nc2c3ccc(NC(=O)CCN4CCCC4)cc3nc3cc(NC(=O)CCN4CCCC4)ccc23)cc1, the viability, T/C is 26.6%.

Consider `O=c1[nH]cc(F)c(=O)[nH]1` + CN(C)c1ccc(Nc2c3ccc(NC(=O)CCN4CCCC4)cc3nc3cc(NC(=O)CCN4CCCC4)ccc23)cc1, for which the viability, T/C was 66%.

Staying with this assay, now noted: second compound 10 µM; first compound 0.316 µM; active compounds read low.
`COc1cc(C2c3cc4c(cc3C(OC3OC5COC(C)OC5C(O)C3O)C3COC(=O)C23)OCO4)cc(OC)c1O` (configuration not stated) + CN(C)c1ccc(Nc2c3ccc(NC(=O)CCN4CCCC4)cc3nc3cc(NC(=O)CCN4CCCC4)ccc23)cc1: the viability, T/C is 37.9%.

Turning to `COc1cccc2c1C(=O)c1c(O)c3c(c(O)c1C2=O)CC(O)(C(=O)CO)CC3OC1CC(N)C(O)C(C)O1` (configuration not stated) + CN(C)c1ccc(Nc2c3ccc(NC(=O)CCN4CCCC4)cc3nc3cc(NC(=O)CCN4CCCC4)ccc23)cc1, the viability, T/C was 17.7%.

In the case of `Nc1ccn(C2OC(CO)C(O)C2(F)F)c(=O)n1` (configuration not stated) + CN(C)c1ccc(Nc2c3ccc(NC(=O)CCN4CCCC4)cc3nc3cc(NC(=O)CCN4CCCC4)ccc23)cc1, the viability, T/C is 26.2%.

`O=c1[nH]cc(F)c(=O)[nH]1` + CN(C)c1ccc(Nc2c3ccc(NC(=O)CCN4CCCC4)cc3nc3cc(NC(=O)CCN4CCCC4)ccc23)cc1: the viability, T/C is 41.8%.

Still in this assay, the particulars now being: second compound 10 µM; first compound 1 µM; active compounds read low.
Take `COc1cc(C2c3cc4c(cc3C(OC3OC5COC(C)OC5C(O)C3O)C3COC(=O)C23)OCO4)cc(OC)c1O` (configuration not stated) + CN(C)c1ccc(Nc2c3ccc(NC(=O)CCN4CCCC4)cc3nc3cc(NC(=O)CCN4CCCC4)ccc23)cc1: the viability, T/C is 29%.

With `COc1cccc2c1C(=O)c1c(O)c3c(c(O)c1C2=O)CC(O)(C(=O)CO)CC3OC1CC(N)C(O)C(C)O1` (configuration not stated) + CN(C)c1ccc(Nc2c3ccc(NC(=O)CCN4CCCC4)cc3nc3cc(NC(=O)CCN4CCCC4)ccc23)cc1, the viability, T/C is 12%.

For `Nc1ccn(C2OC(CO)C(O)C2(F)F)c(=O)n1` (configuration not stated) + CN(C)c1ccc(Nc2c3ccc(NC(=O)CCN4CCCC4)cc3nc3cc(NC(=O)CCN4CCCC4)ccc23)cc1, the viability, T/C was 32.9%.

Turning to `O=c1[nH]cc(F)c(=O)[nH]1` + CN(C)c1ccc(Nc2c3ccc(NC(=O)CCN4CCCC4)cc3nc3cc(NC(=O)CCN4CCCC4)ccc23)cc1, the viability, T/C was 40%.

Still in this assay, the particulars now being: second compound 10 µM; first compound 3.16 µM; active compounds read low.
For the molecule `COc1cc(C2c3cc4c(cc3C(OC3OC5COC(C)OC5C(O)C3O)C3COC(=O)C23)OCO4)cc(OC)c1O` (configuration not stated) + CN(C)c1ccc(Nc2c3ccc(NC(=O)CCN4CCCC4)cc3nc3cc(NC(=O)CCN4CCCC4)ccc23)cc1, the viability, T/C is 27.1%.

Turning to `COc1cccc2c1C(=O)c1c(O)c3c(c(O)c1C2=O)CC(O)(C(=O)CO)CC3OC1CC(N)C(O)C(C)O1` (configuration not stated) + CN(C)c1ccc(Nc2c3ccc(NC(=O)CCN4CCCC4)cc3nc3cc(NC(=O)CCN4CCCC4)ccc23)cc1, the viability, T/C is 2.28%.

In the case of `Nc1ccn(C2OC(CO)C(O)C2(F)F)c(=O)n1` (configuration not stated) + CN(C)c1ccc(Nc2c3ccc(NC(=O)CCN4CCCC4)cc3nc3cc(NC(=O)CCN4CCCC4)ccc23)cc1, the viability, T/C was 26.5%.

In the case of `O=c1[nH]cc(F)c(=O)[nH]1` + CN(C)c1ccc(Nc2c3ccc(NC(=O)CCN4CCCC4)cc3nc3cc(NC(=O)CCN4CCCC4)ccc23)cc1, the viability, T/C was 43.3%.

Still in this assay, the particulars now being: second compound 10 µM; first compound 10 µM; active compounds read low.
On to `COc1cc(C2c3cc4c(cc3C(OC3OC5COC(C)OC5C(O)C3O)C3COC(=O)C23)OCO4)cc(OC)c1O` (configuration not stated) + CN(C)c1ccc(Nc2c3ccc(NC(=O)CCN4CCCC4)cc3nc3cc(NC(=O)CCN4CCCC4)ccc23)cc1, for which the viability, T/C was 26.4%.

On to `COc1cccc2c1C(=O)c1c(O)c3c(c(O)c1C2=O)CC(O)(C(=O)CO)CC3OC1CC(N)C(O)C(C)O1` (configuration not stated) + CN(C)c1ccc(Nc2c3ccc(NC(=O)CCN4CCCC4)cc3nc3cc(NC(=O)CCN4CCCC4)ccc23)cc1, for which the viability, T/C was 3.53%.

For the molecule `Nc1ccn(C2OC(CO)C(O)C2(F)F)c(=O)n1` (configuration not stated) + CN(C)c1ccc(Nc2c3ccc(NC(=O)CCN4CCCC4)cc3nc3cc(NC(=O)CCN4CCCC4)ccc23)cc1, the viability, T/C is 24.9%.

As for `O=c1[nH]cc(F)c(=O)[nH]1` + CN(C)c1ccc(Nc2c3ccc(NC(=O)CCN4CCCC4)cc3nc3cc(NC(=O)CCN4CCCC4)ccc23)cc1, the viability, T/C is 31.4%.
